Measured values from patent publication US20030119813A1, “Derivatives of pyrimido[6,1-a]isoquinolin-4-one” (priority 2001, published 2003).
pIC50: −log10 of the molar value.

What was measured:
[1] = tested on: LPS induced TNF-α release from human monocytes; test: LPS induced TNF-α release from human monocytes; type: cell-based; settings: Monocyte
Method: 6,7-Dihydro-2-(2,6-diisopropylphenoxy)-9,10-dimethoxy-4H-pyrimido-[6,1-a]isoquinolin-4-one (compound of Example 2) was tested for effects on LPS induced TNF-α release from human monocytes.

[2] = tested on: guinea-pig tracheal rings; test: Organ bath experiments, guinea-pig tracheal rings, electrical field stimulation; settings: final concentration 10 μM, n=1
Method: Guinea-pig tracheal rings were suspended in organ baths under 1 g tension between two electrodes and subjected to electrical field stimulation (3 Hz, 0.1 ms duration and 20V (approx 400 mAmps) generated every 100 sec by means of physiological square wave-stimulator. The compounds of Examples 1, 2 and 8 were dissolved in DMSO containing Tween 80 (10%) and distilled water (0.01M), which were then added to the organ bath to give a final concentration of 10 μM.

[3] = tested on: human mononuclear cells stimulated by PHA; test: Proliferation of human mononuclear cells stimulated by PHA ([3H]-thymidine); type: cell-based; settings: PHA 2 μg/ml, n=6, read-out: IC50 against proliferation of human mononuclear cells stimulated with PHA
Method: Normal healthy volunteers underwent phlebotomy and 25 ml of blood was collected. Mononuclear cells were separated and purified according to the method of Banner et al. (Banner et al. Br. J. Pharmacol. 116 3169-3174 (1995)). Human peripheral mononuclear cells (100,000 per well) were stimulated for 24 h with phytohaemagglutinin (PHA, 2 μg/ml) in the absence or presence of the compounds of Examples 1, 2 and 8 (0.001-100 μM) at 37° C. in a 95% air, 5% CO2 atmosphere. Twenty four hours later, [^3H]-thymidine (0.1 μCi) was added to each well and the cells were incubated for a further 24 h period. Cells were then harvested onto glass fibre filters using a cell harvester (ICN Flow, Buckinghamshire) and counted in a scintillation counter.

[4] = tested on: guinea-pig isolated trachea; test: Superfusion of guinea-pig tracheal rings, contraction to electrical field stimulation; settings: for inhibition of contractile responses, duration of action: electrical-induced contraction of guinea-pig isolated trachea; for OT50 (onset time: time to reach 50% of the maximum inhibition of the contractile response) / RT50 (recovery time: time for 50% reversal of the maximum inhibition after terminating exposure): superfused guinea-pig trachea, electrical field stimulation, 10 μM; for OT50 (onset time: time to reach 50% of the maximum inhibition of the contractile response): mean and s.e. mean of three observations; for RT50 (recovery time: time for 50% reversal of the maximum inhibition after terminating exposure): washout
Method: Superfusion of guinea-pig tracheal rings was performed according to a previously described method (Coleman et al. Pulmonary Pharmacology 9 107-117 (1996)). Briefly, guinea-pig tracheal preparations were cut into rings and then opened by sectioning the ring opposite the smooth muscle and suspended between two platinum electrodes under 1 g tension. The tissues were superfused at a rate of from 1 to 3.25 ml/min with Krebs-Henseleit solution at 37° C. containing the cyclooxygenase inhibitor, indomethacin (5 μM) and bubbled with 95% O2 and 5% CO2. Tracheal preparations were allowed to equilibrate for 40 minutes before commencement of electrical stimulation, delivered as a 10 s train of square wave pulses at 3 Hz, 0.1 ms duration and 20V (approx 400 mamps) generated every 100 sec by means of physiological square wave-stimulator. The compounds of the present invention were superfused at a rate of 0.2 to 0.3 ml/min ad contractile responses to electrical field stimulation were recorded on a Macintosh computer using MacLab sor vare. The drug was prepared in DMSO and diluted in Krebs-Henseleit solution which yielded a final superfusion concentration of 0.05 to 0.1% DMSO.
The duration of action was determined and expressed as onset time (OT50) and recovery time (RT50).

[5] = tested on: mean arterial blood pressure; test: Intravenous administration to urethane anaesthetised guinea-pigs, mean arterial blood pressure; type: in vivo, guinea-pig; settings: 0.1 to 300 μg/kg
Method: 2. […] The compound was dissolved in DMSO then diluted with saline (there was evidence that the compound had come out of solution).

[6] = tested on: recruitment of eosinophils to the lungs; test: Antigen induced eosinophilia in the ovalbumin sensitised guinea-pig; type: in vivo; settings: 10 mg/kg orally 1 hour prior to antigen challenge, ovalbumin sensitised guinea-pigs
[7] = tested on: histamine induced bronchospasm; test: Histamine induced bronchospasm, inhaled dry powder, guinea-pig; type: in vivo
Method: 1. The above compound was tested in a model of histamine induced bronchospasm. Conscious guinea-pigs were exposed to dry powder (micronised) of the compound. The drug was blended with lactose so that the final concentration was 0.25, 2.5 and 25%. At various times after exposure to drug the animals were anaesthetised and challenged with varying doses of histamine. Total airway resistance and mean arterial blood pressure were recorded.

PDE4 (human neutrophil) = test: PDE4 inhibition; type: biochemical
PDE3 (human platelet) = molecular target: T1, PDE3 (human platelet) (Homo sapiens, UniProt Q14432); test: PDE3 inhibition; type: biochemical
T1 construct: (human platelet); from tissue; host or cells: human platelets
T1 sequence (Q14432 whole entry): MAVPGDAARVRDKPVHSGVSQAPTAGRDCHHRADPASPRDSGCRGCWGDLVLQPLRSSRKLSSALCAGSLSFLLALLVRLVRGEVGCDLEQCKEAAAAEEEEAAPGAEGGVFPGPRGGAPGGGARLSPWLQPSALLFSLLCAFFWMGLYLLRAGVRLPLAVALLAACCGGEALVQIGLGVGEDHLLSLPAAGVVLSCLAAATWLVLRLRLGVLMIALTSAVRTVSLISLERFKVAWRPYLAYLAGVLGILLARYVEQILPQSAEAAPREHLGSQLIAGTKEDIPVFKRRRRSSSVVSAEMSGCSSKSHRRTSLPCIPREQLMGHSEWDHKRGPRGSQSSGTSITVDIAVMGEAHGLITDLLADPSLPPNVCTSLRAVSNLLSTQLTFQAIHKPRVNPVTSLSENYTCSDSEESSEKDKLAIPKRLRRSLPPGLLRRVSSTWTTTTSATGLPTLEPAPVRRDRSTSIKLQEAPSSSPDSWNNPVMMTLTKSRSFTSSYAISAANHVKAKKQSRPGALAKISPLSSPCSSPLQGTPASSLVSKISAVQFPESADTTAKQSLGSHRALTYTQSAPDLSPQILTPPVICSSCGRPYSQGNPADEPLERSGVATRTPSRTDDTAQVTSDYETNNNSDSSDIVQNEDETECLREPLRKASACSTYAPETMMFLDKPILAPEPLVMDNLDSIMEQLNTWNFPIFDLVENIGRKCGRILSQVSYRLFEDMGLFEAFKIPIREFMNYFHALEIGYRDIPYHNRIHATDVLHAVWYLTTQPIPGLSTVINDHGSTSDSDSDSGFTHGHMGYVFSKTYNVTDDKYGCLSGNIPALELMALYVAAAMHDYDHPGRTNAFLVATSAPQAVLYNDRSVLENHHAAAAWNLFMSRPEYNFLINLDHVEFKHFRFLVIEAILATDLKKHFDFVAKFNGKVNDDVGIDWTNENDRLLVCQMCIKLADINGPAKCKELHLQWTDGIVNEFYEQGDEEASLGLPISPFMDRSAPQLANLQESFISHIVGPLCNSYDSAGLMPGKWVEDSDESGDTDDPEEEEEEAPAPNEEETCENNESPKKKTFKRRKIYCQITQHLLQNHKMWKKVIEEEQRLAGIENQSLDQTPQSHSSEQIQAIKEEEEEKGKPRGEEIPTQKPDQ

## CN/C(=N\c1ccc(C2=NNC(=O)CC2C)cc1)NC#N (centres unmarked) [Siguazodan]
[1]; unit printed in the cell beside the value
  pIC50: < 4.00

## COc1cc2c(cc1OC)-c1cc(Oc3c(Cl)cccc3Cl)nc(=O)n1CC2 [Example 8, 2-(2,6-Dichlorophenoxy)-6,7-dihydro-9,10-dimethoxy-4H-pyrimido-[6,1-a]isoquinolin-4-one]
[2]
  inhibition of the contractile response to electrical field stimulation: complete inhibition
[3]
  pIC50: 5.09

## COc1cc2c(cc1OC)-c1cc(Oc3ccccc3C3CCCC3)nc(=O)n1CC2 [Example 13, 2-(2-Cyclopentylphenoxy)-9,10-dimethoxy-6.7-dihydro-4H-pyrimido[6,1-a]-isoquinolin-4-one]
[4]
  inhibition of contractile responses, duration of action: inhibit the contractile responses with a long duration of action
  OT50 (onset time: time to reach 50% of the maximum inhibition of the contractile response): 18.6 ± 1.5 min
  RT50 (recovery time: time for 50% reversal of the maximum inhibition after terminating exposure): >300 min

## COc1cc2c(cc1OC)-c1cc(Oc3c(C)cccc3C)nc(=O)n1CC2 [Example 1, 6,7-Dihydro-2-(2,6-dimethylphenoxy)-9,10-dimethoxy-4H-pyrimido-[6,1-a]isoquinolin-4-one]
[2]
  inhibition of the contractile response to electrical field stimulation: complete inhibition
[3]
  pIC50: 5.29

## COc1cc2c(cc1OC)-c1cc(Oc3c(C(C)C)cccc3C(C)C)nc(=O)n1CC2 [Example 2, 6,7-Dihydro-2-(2,6-diisopropylphenoxy)-9,10-dimethoxy-4H-pyrimido-[6,1-a]isoquinolin-4-one]
[2]
  inhibition of the contractile response to electrical field stimulation: complete inhibition
[5]
  effect on mean arterial blood pressure: dose dependant reduction in mean arterial blood pressure
[6]
  recruitment of eosinophils to the lungs following antigen challenge: significantly inhibited
[3]
  pIC50: 5.54
[7]; conscious guinea-pigs exposed to dry powder (25% in lactose)
  protection against histamine induced bronchospasm (total airway resistance): significant protection against histamine induced bronchospasm
[7]; guinea-pigs, inhaled dry powder (25%)
  effect on mean arterial blood pressure: without changing mean arterial blood pressure
[1]; n = 6
  pIC50: 6.60
PDE4 (human neutrophil)
  pIC50: 5.92
PDE3 (human platelet)
  pIC50: 6.97
[4]
  inhibition of contractile responses, duration of action: inhibit the contractile responses with a long duration of action
  OT50 (onset time: time to reach 50% of the maximum inhibition of the contractile response): 24.9 ± 5.0 min
  RT50 (recovery time: time for 50% reversal of the maximum inhibition after terminating exposure): >240 min

## COc1cc2c(cc1OC)-c1cc(=Nc3c(C)cc(C)cc3C)n(C)c(=O)n1CC2 [Trequinsin, 9,10-dimethoxy-3-methyl-2-mesitylimino-2,3,6,7-tetrahydro-4H-pyrimido[6,1-a]isoquinolin-4-one, reference compound]
[4]
  OT50 (onset time: time to reach 50% of the maximum inhibition of the contractile response): 14 min
  RT50 (recovery time: time for 50% reversal of the maximum inhibition after terminating exposure): 146 min

## COc1cc2c(cc1OC)-c1cc(Oc3ccccc3CC(C)C)nc(=O)n1CC2 [Example 10, 9,10-Dimethoxy-2-(2-isobutylphenoxy)-6,7-dihydro-4H-pyrimido[6,1-a]isoquinolin-4-one]
[4]
  inhibition of contractile responses, duration of action: inhibit the contractile responses with a long duration of action
  OT50 (onset time: time to reach 50% of the maximum inhibition of the contractile response): 17.5 ± 1.25 min
  RT50 (recovery time: time for 50% reversal of the maximum inhibition after terminating exposure): >300 min

## COc1ccc([C@H](Cc2ccncc2)c2ccccc2)cc1OC1CCCC1 [CDP 840]
[1]; n = 6
  pIC50: 7.04

## CCc1cccc(CC)c1Oc1cc2n(c(=O)n1)CCc1cc(OC)c(OC)cc1-2 [Example 3, 2-(2,6-diethylphenoxy)-6,7-dihydro-9,10-dimethoxy-4H-pyrimido-[6,1-a]isoquinolin-4-one]
[4]
  inhibition of contractile responses, duration of action: inhibit the contractile responses with a long duration of action
  OT50 (onset time: time to reach 50% of the maximum inhibition of the contractile response): 17 ± 1 min
  RT50 (recovery time: time for 50% reversal of the maximum inhibition after terminating exposure): >240 min

## COc1cc2c(cc1OC)-c1cc(Oc3ccccc3C(C)(C)C)nc(=O)n1CC2 [Example 11, 2-(2-tert-butylphenoxy)-9,10-dimethoxy-6,7-dihydro-4H-pyrimido[6,1-a]isoquinolin-4-one]
[4]
  inhibition of contractile responses, duration of action: inhibit the contractile responses with a long duration of action
  OT50 (onset time: time to reach 50% of the maximum inhibition of the contractile response): 14.7 ± 1.33 min
  RT50 (recovery time: time for 50% reversal of the maximum inhibition after terminating exposure): >300 min

## CCc1ccccc1Oc1cc2n(c(=O)n1)CCc1cc(OC)c(OC)cc1-2 [Example 12, 9,10-Dimethoxy-2-(2-ethylphenoxy)-6,7-dihydro-4H-pyrimido[6,1-a]isoquinolin-4-one]
[4]
  inhibition of contractile responses, duration of action: inhibit the contractile responses with a long duration of action
  OT50 (onset time: time to reach 50% of the maximum inhibition of the contractile response): 9.7 ± 0.6 min
  RT50 (recovery time: time for 50% reversal of the maximum inhibition after terminating exposure): 263 min
